Assay [1] deals with MAPK14 (human) (UniProt Q16539). The experiment in a line: Inhibition of TNF Production (PBMC).
The target is the same in assay [2]. The experiment in a line: Inhibition of TNF Production (U937 Cells).
The target in a further assay is MAPK14 (UniProt Q16539). The experiment in a line: p38 alpha Inhibition.
Chain of MAPK14 (Q16539 whole entry, looked up): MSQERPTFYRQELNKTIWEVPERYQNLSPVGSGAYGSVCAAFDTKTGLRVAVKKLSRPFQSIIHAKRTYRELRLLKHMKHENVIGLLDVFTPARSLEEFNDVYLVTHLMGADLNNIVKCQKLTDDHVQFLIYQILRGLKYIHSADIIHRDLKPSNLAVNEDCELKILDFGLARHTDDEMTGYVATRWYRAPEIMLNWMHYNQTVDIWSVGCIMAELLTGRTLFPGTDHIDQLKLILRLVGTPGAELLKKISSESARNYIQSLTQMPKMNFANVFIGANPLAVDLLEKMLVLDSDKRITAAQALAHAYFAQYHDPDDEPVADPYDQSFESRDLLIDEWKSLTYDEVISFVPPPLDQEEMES

Chain of MAPK14 (human) (Q16539 whole entry, looked up): as above

On to `Cc1ccc(-n2nc(C)cc2-c2ccnc(NCc3ccccc3)c2)cc1`, for which the IC50 against MAPK14 (human) [1] was 1100 nM. Consider `CCNc1cc(-c2ccncc2)n(-c2ccc(F)cc2)n1`, for which the IC50 was over 10000 nM against MAPK14 (human) [1] and 10000 nM against MAPK14 (human) [2]. `Cc1cccc(-n2nc(C)cc2-c2ccnc(NCCO)c2)c1`: the IC50 was determined as 100 nM at MAPK14 (human) [1] and 210 nM on MAPK14 (human) [2]. Regarding `Cc1cc(-c2ccnc(NCc3ccccc3)c2)n(-c2ccc(Cl)cc2)n1`, the figures for the half-inhibitory concentration (IC50) at MAPK14 (human) [1] and against MAPK14 (human) [2] were 300 nM and 200 nM, respectively. The like results for `Cc1cccc(-n2nc(C)cc2-c2ccnc(OCc3ccccc3)c2)c1` were, in that order, over 10000 nM and 2640 nM.

On MAPK14 (human) [2], `COC(=O)c1cnn(-c2ccc(F)cc2)c1-c1ccncc1` came in with an IC50 of 10000 nM. This lies in the double-digit micromolar range. For `Cc1cccc(-n2nc(C)cc2-c2ccnc(N(C)Cc3ccccc3)c2)c1`, the IC50 was over 10000 nM against MAPK14 (human) [1] and 10000 nM at MAPK14 (human) [2]. In the same order, the values of `Cc1cccc(-n2ncc(C)c2-c2ccncc2)c1` are 600 nM and 660 nM. On MAPK14 (human) [1], `Cc1ccc(-n2nc(C)cc2-c2ccnc(NCCO)c2)cc1` came in with a half-inhibitory concentration (IC50) of 200 nM. For the molecule `Fc1ccc(-n2nccc2-c2ccnc(NCCc3ccccc3)c2)cc1`, on MAPK14 (human) [1], the IC50 was 10000 nM. This IC50 lies about 50-fold higher than the previous one.

With `O=C(c1cnn(-c2ccc(F)cc2)c1-c1ccncc1)N1CCNCC1`, the IC50 is over 10000 nM on MAPK14 (human) [1] and 10000 nM on MAPK14 (human) [2].

Regarding `Cc1ccc(-n2nc(C)cc2-c2ccnc(NCc3cccnc3)c2)cc1`, on MAPK14 (human) [1], the IC50 was found to be 1500 nM. This lies in the single-digit micromolar range. For the molecule `Cc1cc(-c2ccnc(NCCO)c2)n(-c2ccc(Cl)cc2)n1`, the values for the half-maximal inhibitory concentration (IC50) against MAPK14 (human) [1] and against MAPK14 (human) [2] were 100 nM and 480 nM, respectively. For the molecule `CCCc1cnn(-c2cccc(F)c2)c1-c1ccncc1`, the half-inhibitory concentration (IC50) at MAPK14 is 1480 nM; at MAPK14 (human) [1] it was 1300 nM; against MAPK14 (human) [2], 830 nM. On MAPK14 (human) [1], `Cc1cnn(Cc2ccccc2)c1-c1ccncc1` showed a half-maximal inhibitory concentration (IC50) of over 10000 nM. On the same count and under the same terms, next, `Cc1ccc(-n2nc(C)cc2-c2cccc(N)c2)cc1`: over 10000 nM. The molecule `Cc1cc(-c2ccnc(NCCc3ccccc3)c2)n(-c2ccc(Cl)cc2)n1` had an ID50 at MAPK14 (human) [1] of 100 nM. Besides, the IC50 at MAPK14 (human) [2] was determined as 860 nM.

Regarding `Cc1cccc(-n2nc(C)cc2-c2ccnc(N(C)C)c2)c1`, the values for the IC50 on MAPK14 (human) [1] and at MAPK14 (human) [2] were 3400 nM and 10000 nM, respectively. Turning to `Cc1cccc(-n2nc(C)cc2-c2ccnc(N(C)CCc3ccccc3)c2)c1`, the IC50 against MAPK14 (human) [1] was determined as 800 nM. With `Cc1cnn(-c2cccc(F)c2)c1-c1ccncc1`, the 50% inhibitory concentration (IC50) on MAPK14 (human) [1] is 4000 nM.

`Fc1ccc(-n2nccc2-c2ccnc(Cl)c2)cc1`: the IC50 turned out to be 8100 nM at MAPK14 (human) [1] and 10000 nM at MAPK14 (human) [2]. `Cc1cc(-c2ccnc(Cl)c2)n(-c2cccc(F)c2)n1` displayed an IC50 against MAPK14 (human) [2] of over 10000 nM. Take `Cc1cccc(-n2nc(C)cc2-c2ccnc(NCc3ccccc3)c2)c1`: the IC50 against MAPK14 (human) [1] came out at 100 nM. On to `Cc1cc(-c2ccnc(C#N)c2)n(-c2ccc(F)cc2)n1`, for which the IC50 at MAPK14 (human) [1] and against MAPK14 (human) [2] was over 10000 nM in each case. Consider `Cc1cccc(-n2nc(C)cc2-c2ccnc(C#N)c2)c1`, for which the values for the IC50 on MAPK14 (human) [1] and on MAPK14 (human) [2] were 1700 nM and 1650 nM, respectively.

Consider `CCNc1cc(-c2cc(C)nn2-c2ccc(C)cc2)ccn1`, for which the results for the IC50 against MAPK14 (human) [1] and against MAPK14 (human) [2] were 200 nM and 720 nM, respectively. `Cc1cc(-c2ccnc(NCc3cccnc3)c2)n(-c2cccc(F)c2)n1` had an IC50 at MAPK14 (human) [1] of 600 nM. On MAPK14 (human) [1], `Cc1cccc(-n2nc(C)cc2-c2ccnc(N)c2)c1` yielded an IC50 of 500 nM. As to `Fc1ccc(-n2ncc(N3CCNCC3)c2-c2ccncc2)cc1`, the results for the half-inhibitory concentration (IC50) against MAPK14 (human) [1] and against MAPK14 (human) [2] were over 10000 nM and 10000 nM, respectively. As to `CCc1cnn(-c2cccc(F)c2)c1-c1ccncc1`, the IC50 came out at 16500 nM at MAPK14, 700 nM against MAPK14 (human) [1] and 1150 nM against MAPK14 (human) [2]. On to `NC(=O)c1cnn(-c2ccc(F)cc2)c1-c1ccncc1`, for which the IC50 against MAPK14 (human) [1] and on MAPK14 (human) [2] was over 10000 nM in each case.

Turning to `CNc1cc(-c2cc(C)nn2-c2ccc(C)cc2)ccn1`, the IC50 at MAPK14 (human) [1] is 100 nM; against MAPK14 (human) [2] it was 17900 nM.

As to `Cc1cccc(-n2nc(C)cc2-c2ccnc(NCCc3ccccc3)c2)c1`, the figures for the IC50 against MAPK14 (human) [1] and at MAPK14 (human) [2] were 20 nM and 50 nM, respectively. In the same order, the values of `Cc1cccc(-n2nc(C)cc2-c2cc[nH]c(=O)c2)c1` are 2400 nM and 10000 nM.

Molecule `Cc1cccc(-n2nc(C)cc2-c2ccnc(C(N)=O)c2)c1` gave an IC50 at MAPK14 (human) [1] of 5000 nM. Still for that read-out and setting: next, `Cc1ccc(-n2nc(C)cc2-c2ccnc(Cl)c2)cc1`: 2900 nM. Turning to `Cc1cccc(-n2nc(C)cc2-c2ccnc(S(C)(=O)=O)c2)c1`, the IC50 against MAPK14 (human) [1] was over 10000 nM.

The molecule `Cc1ccc(-n2nc(C)cc2-c2ccnc(N(C)C)c2)cc1` yielded an IC50 at MAPK14 (human) [1] of over 10000 nM. `Fc1ccc(-n2nccc2-c2ccnc(NCc3ccccc3)c2)cc1`: the IC50 on MAPK14 (human) [1] is 1300 nM; against MAPK14 (human) [2] it was 240 nM.

In turn, `O=C(O)c1cnn(-c2ccc(F)cc2)c1-c1ccncc1` came in with an IC50 at MAPK14 (human) [2] of 10000 nM.

For the molecule `COc1cc(-c2cc(C)nn2-c2cccc(C)c2)ccn1`, the IC50 was determined as 1900 nM against MAPK14 (human) [1] and 1310 nM against MAPK14 (human) [2]. Take `Cc1cnn(-c2ccc(F)cc2)c1-c1ccncc1`: the IC50 against MAPK14 (human) [1] amounted to 100 nM; against MAPK14 (human) [2] it was 10000 nM.

On MAPK14 (human) [1], `Cc1cc(-c2ccnc(N=[N+]=[N-])c2)n(-c2cccc(F)c2)n1` registered an IC50 of 2200 nM. This counts as single-digit micromolar.

(Values after the Kinase Knowledgebase extract (Sharma et al. 2016).)
